Experimental data from the NIST ThermoML archive (doi:10.1016/j.fluid.2011.03.003).
Numbers after ± are expanded uncertainties.

Conditions: Liquid, Closed cell (Static) method

CCC(=O)O [propanoic acid]
vapor or sublimation pressure (413.58 K): 101.3 ± 1.2 kPa

CC(C)O [propan-2-ol]
vapor or sublimation pressure (355.15 K): 101.3 ± 1.2 kPa

CCC(=O)OC(C)C [1-methylethyl propanoate]
vapor or sublimation pressure (337.66 K): 24.6 ± 0.09 kPa
vapor or sublimation pressure (342.61 K): 29.5 ± 0.11 kPa
vapor or sublimation pressure (347.62 K): 35.68 ± 0.13 kPa
vapor or sublimation pressure (352.67 K): 42.43 ± 0.15 kPa
vapor or sublimation pressure (357.58 K): 50.12 ± 0.18 kPa
vapor or sublimation pressure (362.57 K): 59 ± 0.2 kPa
vapor or sublimation pressure (382.65 K): 101.3 ± 0.3 kPa
